Data reported in patent US10947261B2, “Tetravalent platinum compound-bicyclic double-bond-containing amphiphilic polymer prodrug, nano-micelle, preparation method and application thereof” (ANHUI UNIVERSITY, priority 2017, dated 2021).

System: MCF-7, A549 and HepG2 cells
Assay: Cellular uptake of drug-loaded micelles (confocal laser, flow cytometer)
Format: cell-based, human
Conditions: doxorubicin 16 μg/mL, 4 h
Procedure: Cell culture: human breast cancer cells (MCF-7), human lung adenocarcinoma cells (A549) and human hepatoma cells (HepG2) were respectively added to a standard 6-well plate, and about 10^5 cells are in each well. After overnight culture, the culture medium was removed, and 1.8 mL of fresh medium was added to prepare three cell culture solutions.
Drug treatment: 0.2 mL of each of the above two drugs (the final concentration of doxorubicin was 16 μg/mL) were added to the three cell culture solutions, respectively, and the cells were cultured for 4 h; subsequently, the culture medium was removed, and the cells were washed twice with PBS, fixed with 4% paraformaldehyde solution (about 5 min), and then washed twice with PBS; then, the nuclei of cells were stained with nuclear staining reagent (5 min), and the cells were washed twice with PBS.

Structure (SMILES): COc1cccc2c1C(=O)c1c(O)c3c(c(O)c1C2=O)C[C@@](O)(C(=O)CO)C[C@@H]3O[C@H]1C[C@H](N)[C@H](O)[C@H](C)O1 [doxorubicin]
- cellular uptake: cellular uptake can effectively occur
